Data from ChEMBL document CHEMBL5370585, “Exploration and Biological Evaluation of 1,3-Diamino-7H-pyrrol[3,2-f]quinazoline Derivatives as Dihydrofolate Reductase Inhibitors” (J Med Chem, 2023).
pIC50: −log10 of the molar value. In brackets after ≈: the same amount, converted by molar mass. Activity calls are given as the source filed them. The rule behind the calls is not given here.

Tests used:
Staphylococcus aureus [1] = test: Antibacterial activity against Methicillin-resistant Staphylococcus aureus ATCC 43300 infected in ICR mouse thigh infection model assessed as survival rate at 15 mg/kg, ip measured after 24 hrs post-treatment relative to control; format: functional
[2] = Stability in mouse plasma assessed as parent compound remaining at 5 ug/ml measured after 120 mins by LC-MS/MS analysis; format: ADME, cell-free; details: at 5 µg/mL, read-out: Stability
Escherichia coli [3] = test: Antibacterial activity against Escherichia coli ATCC 25922 assessed as inhibition of bacterial growth at upto 8 times MIC measured upto 28 hrs by time kill curve assay; format: functional, organism-based
[4] = Toxicity in ICR mouse assessed as median lethal dose administered as single IP dose measured upto 8 days; details: in vivo, time < 8 day
[5] = Stability in mouse plasma assessed as parent compound remaining at 1 ug/ml measured after 10 mins by LC-MS/MS analysis; format: ADME, cell-free; details: at 1 µg/mL, read-out: Stability
[6] = Metabolic stability in mouse liver microsomes assessed as hepatic clearance at 1 uM measured upto 60 mins in presence of NADPH by LC-MS/MS analysis; format: ADME, Microsome; details: 1 h
Staphylococcus aureus [7] = test: Antibacterial activity against Staphylococcus aureus ATCC 29213 incubated for 16 to 18 hrs in presence of human plasma by CLSI based broth dilution method; format: functional; details: time 16-18 hrs
HepG2 = test: Cytotoxicity against human HepG2 cells measured after 72 hrs by MTT assay; format: functional, cell-based; details: HepG2, 72 h
[8] = Stability in mouse plasma assessed as parent compound remaining at 5 ug/ml measured after 30 mins by LC-MS/MS analysis; format: ADME, cell-free; details: at 5 µg/mL, read-out: Stability
Staphylococcus aureus [9] = test: Antibacterial activity against methicillin-resistant Staphylococcus aureus ATCC 43300 incubated for 16 to 18 hrs by CLSI based broth dilution method; format: functional; details: time 16-18 hrs
[10] = Stability in mouse plasma assessed as parent compound remaining at 5 ug/ml measured after 60 mins by LC-MS/MS analysis; format: ADME, cell-free; details: at 5 µg/mL, read-out: Stability
HGC-27 = test: Cytotoxicity against human HGC-27 cells measured after 72 hrs by MTT assay; format: functional, cell-based; details: HGC-27, 72 h
[11] = Stability in mouse plasma assessed as parent compound remaining at 5 ug/ml measured after 20 mins by LC-MS/MS analysis; format: ADME, cell-free; details: at 5 µg/mL, read-out: Stability
Escherichia coli [12] = test: Antibacterial activity against Escherichia coli ATCC 25922 incubated for 16 to 18 hrs in presence of human plasma by CLSI based broth dilution method; format: functional; details: time 16-18 hrs
Escherichia coli [13] = test: Antibacterial activity against Escherichia coli ATCC 25922 incubated for 16 to 18 hrs in absence of human plasma by CLSI based broth dilution method; format: functional; details: time 16-18 hrs
Staphylococcus aureus [14] = test: Antibacterial activity against Methicillin-resistant Staphylococcus aureus ATCC 43300 infected in ICR mouse thigh infection model assessed as survival rate at 7.5 mg/kg, ip measured after 24 hrs post-treatment relative to control; format: functional
[15] = Stability in mouse plasma assessed as parent compound remaining at 1 ug/ml measured after 240 mins by LC-MS/MS analysis; format: ADME, cell-free; details: at 1 µg/mL, read-out: Stability
[16] = Metabolic stability in mouse liver microsomes assessed as half life at 1 uM measured upto 60 mins in presence of NADPH by LC-MS/MS analysis; format: ADME, Microsome
[17] = Stability in mouse plasma assessed as parent compound remaining at 1 ug/ml measured after 45 mins by LC-MS/MS analysis; format: ADME, cell-free; details: at 1 µg/mL, read-out: Stability
[18] = Stability in mouse plasma assessed as parent compound remaining at 5 ug/ml measured after 1440 mins by LC-MS/MS analysis; format: ADME, cell-free; details: at 5 µg/mL, read-out: Stability
Escherichia coli [19] = test: Antibacterial activity against Escherichia coli ATCC 25922 incubated for 16 to 18 hrs by CLSI based broth dilution method; format: functional; details: time 16-18 hrs
HCT-116 = test: Cytotoxicity against human HCT-116 cells measured after 72 hrs by MTT assay; format: functional, cell-based; details: HCT-116, 72 h
[20] = AUC (0 to infinity) in ICR mouse at 10 mg/kg, ip measured after 5 to 24 hrs post administration by LC-MS/MS analysis; format: ADME, organism-based; set-up: time upper 24 hrs, dose 10 mg/kg, time lower 5 hrs, route ip; details: in vivo
[21] = Stability in mouse plasma assessed as parent compound remaining at 1 ug/ml measured after 1440 mins by LC-MS/MS analysis; format: ADME, cell-free; details: at 1 µg/mL, read-out: Stability
Staphylococcus aureus [22] = test: Drug resistance against methicillin-resistant Staphylococcus aureus ATCC 43300 assessed as increase in MIC measured after 10 passaging for 24 hrs; format: functional, organism-based
Enterococcus faecalis = test: Antibacterial activity against Enterococcus faecalis ATCC 29212 incubated for 16 to 18 hrs by CLSI based broth dilution method; format: functional; details: time 16-18 hrs
[23] = Half life in ICR mouse at 10 mg/kg, ip measured after 5 to 24 hrs post administration by LC-MS/MS analysis; format: ADME, organism-based; details: in vivo, time 5-24 hrs
[24] = Stability in mouse plasma assessed as parent compound remaining at 5 ug/ml measured after 240 mins by LC-MS/MS analysis; format: ADME, cell-free; details: at 5 µg/mL, read-out: Stability
Staphylococcus aureus [25] = test: Antibacterial activity against methicillin-resistant Staphylococcus aureus ATCC 43300 assessed as inhibition of bacterial growth at upto 8 times MIC measured upto 28 hrs by time kill curve assay; format: functional, organism-based
Acinetobacter baumannii = test: Antibacterial activity against Acinetobacter baumannii ATCC 19606 incubated for 16 to 18 hrs by CLSI based broth dilution method; format: functional; details: time 16-18 hrs
[26] = Stability in mouse plasma assessed as parent compound remaining at 1 ug/ml measured after 30 mins by LC-MS/MS analysis; format: ADME, cell-free; details: at 1 µg/mL, read-out: Stability
[27] = Stability in mouse plasma assessed as parent compound remaining at 1 ug/ml measured after 20 mins by LC-MS/MS analysis; format: ADME, cell-free; details: at 1 µg/mL, read-out: Stability
MCF7 = test: Cytotoxicity against human MCF7 cells measured after 72 hrs by MTT assay; format: functional, cell-based; details: MCF7, 72 h
[28] = Stability in mouse plasma assessed as parent compound remaining at 5 ug/ml measured after 10 mins by LC-MS/MS analysis; format: ADME, cell-free; details: at 5 µg/mL, read-out: Stability
[29] = Metabolic stability in mouse liver microsomes assessed as intrinsic clearance at 1 uM measured upto 60 mins in presence of NADPH by LC-MS/MS analysis; format: ADME, Microsome; details: read-out: CLH
Staphylococcus aureus [30] = test: Antibacterial activity against methicillin-resistant Staphylococcus aureus ATCC 43300 incubated for 16 to 18 hrs in absence of human plasma by CLSI based broth dilution method; format: functional; details: time 16-18 hrs
[31] = Stability in mouse plasma assessed as parent compound remaining at 1 ug/ml measured after 120 mins by LC-MS/MS analysis; format: ADME, cell-free; details: at 1 µg/mL, read-out: Stability
Staphylococcus aureus [32] = test: Antibacterial activity against Methicillin-resistant Staphylococcus aureus ATCC 43300 infected in ip dosed ICR mouse thigh infection model assessed as reduction in bacterial growth measured after 24 hrs post-treatment; format: functional, organism-based; details: dose lower 7.5 mg/kg, dose upper […]
[33] = Stability in mouse plasma assessed as parent compound remaining at 5 ug/ml measured after 45 mins by LC-MS/MS analysis; format: ADME, cell-free; details: at 5 µg/mL, read-out: Stability
[34] = Toxicity in ip dosed ICR mouse assessed as animal death at high dose measured upto 8 days; format: organism-based; details: in vivo, 192 h, time < 8 day
Staphylococcus aureus [35] = test: Antibacterial activity against methicillin-resistant Staphylococcus aureus ATCC 43300 incubated for 16 to 18 hrs in presence of human plasma by CLSI based broth dilution method; format: functional; details: time 16-18 hrs
[36] = Stability in mouse plasma assessed as parent compound remaining at 1 ug/ml measured after 60 mins by LC-MS/MS analysis; format: ADME, cell-free; details: at 1 µg/mL, read-out: Stability
Staphylococcus aureus [37] = test: Antibacterial activity against Staphylococcus aureus ATCC 29213 incubated for 16 to 18 hrs by CLSI based broth dilution method; format: functional; details: time 16-18 hrs
Staphylococcus aureus [38] = test: Antibacterial activity against Staphylococcus aureus ATCC 29213 incubated for 16 to 18 hrs in absence of human plasma by CLSI based broth dilution method; format: functional; details: time 16-18 hrs
[39] = tested on: Staphylococcus epidermidis; test: Antibacterial activity against Staphylococcus epidermidis ATCC 12228 incubated for 16 to 18 hrs by CLSI based broth dilution method; format: functional; details: time 16-18 hrs
[40] = AUC (0 to t) in ICR mouse at 10 mg/kg, ip measured after 5 to 24 hrs post administration by LC-MS/MS analysis; format: ADME, organism-based; set-up: time 5-24 hrs, dose 10 mg/kg, route ip; details: in vivo

For Nc1nc(N)c2c(ccc3c2ccn3Cc2ccc3scnc3c2)n1, which survival at 15 mg/kg (Staphylococcus aureus [1]) is on record?
Its survival at 15 mg/kg is 66%.

What about the remaining at 2 h, 5 ug/ml [2] of the same compound?
The remaining at 2 h, 5 ug/ml was 95.5%.

What about the Activity (Escherichia coli [3]) of the same compound?
The Activity was “Active”.

And the LD50 at 192 h [4]?
The LD50 at 192 h was 283 mg/kg.

And the remaining at 10 min, 1 ug/ml [5]?
The remaining at 10 min, 1 ug/ml was 96.2%.

What about the CLH [6] of the same compound?
The CLH was 74.9 mL/min/kg.

And the MIC (Staphylococcus aureus [7])?
The MIC was 0.5 µg/mL.

And the pIC50 (HepG2)?
The pIC50 was 6.92.

What about the remaining at 0.5 h, 5 ug/ml [8] of the same compound?
Its remaining at 0.5 h, 5 ug/ml is 95.8%.

What about the MIC (Staphylococcus aureus [9]) of the same compound?
The MIC was 0.016 µg/mL (≈ 0.0462 µM).

What about the remaining at 1 h, 5 ug/ml [10] of the same compound?
The remaining at 1 h, 5 ug/ml was 95.4%.

And the pIC50 (HGC-27)?
The pIC50 was 9.00.

And the remaining at 20 min, 5 ug/ml [11]?
Its remaining at 20 min, 5 ug/ml is 96%.

What about the MIC (Escherichia coli [12]) of the same compound?
The MIC was 0.125 µg/mL.

And the MIC (Escherichia coli [13])?
The MIC was 0.06 µg/mL (≈ 0.173 µM).

What about the survival at 7.5 mg/kg (Staphylococcus aureus [14]) of the same compound?
The survival at 7.5 mg/kg was 50%.

And the remaining at 4 h, 1 ug/ml [15]?
The remaining at 4 h, 1 ug/ml was 92.6%.

And the half-life at 1 µM [16]?
The half-life at 1 µM was 12.2 min.

And the remaining at 0.75 h, 1 ug/ml [17]?
The remaining at 0.75 h, 1 ug/ml was 93.1%.

And the remaining at 24 h, 5 ug/ml [18]?
The remaining at 24 h, 5 ug/ml was 95.5%.

What about the MIC (Escherichia coli [19]) of the same compound?
The MIC was 0.06 µg/mL (≈ 0.173 µM).

What about the pIC50 (HCT-116) of the same compound?
Its pIC50 is 8.30.

What about the AUC [20] of the same compound?
The AUC was 367.6 ng·h/mL.

And the remaining at 24 h, 1 ug/ml [21]?
The remaining at 24 h, 1 ug/ml was 92.3%.

What about the Activity (Staphylococcus aureus [22]) of the same compound?
Its Activity is “Active”.

And the MIC (Enterococcus faecalis)?
Its MIC is 0.03 µg/mL (≈ 0.0866 µM).

What about the half-life [23] of the same compound?
The half-life was 169 min.

And the remaining at 4 h, 5 ug/ml [24]?
Its remaining at 4 h, 5 ug/ml is 95.2%.

What about the Activity (Staphylococcus aureus [25]) of the same compound?
Its Activity is “Active”.

What about the MIC (Acinetobacter baumannii) of the same compound?
Its MIC is 1 µg/mL (≈ 2.89 µM).

What about the remaining at 0.5 h, 1 ug/ml [26] of the same compound?
The remaining at 0.5 h, 1 ug/ml was 93.8%.

What about the remaining at 20 min, 1 ug/ml [27] of the same compound?
Its remaining at 20 min, 1 ug/ml is 94.7%.

What about the pIC50 (MCF7) of the same compound?
The pIC50 was 6.24.

And the remaining at 10 min, 5 ug/ml [28]?
Its remaining at 10 min, 5 ug/ml is 96.7%.

And the microsomal CLint at 1 µM [29]?
The microsomal CLint at 1 µM was 114 µL/min/mg.

And the MIC (Staphylococcus aureus [30])?
The MIC was 0.016 µg/mL (≈ 0.0462 µM).

And the remaining at 2 h, 1 ug/ml [31]?
Its remaining at 2 h, 1 ug/ml is 92.5%.

What about the Activity (Staphylococcus aureus [32]) of the same compound?
The Activity was “Active”.

And the remaining at 0.75 h, 5 ug/ml [33]?
Its remaining at 0.75 h, 5 ug/ml is 95.2%.

What about the Activity [34] of the same compound?
The Activity was “Toxic”.

What about the MIC (Staphylococcus aureus [35]) of the same compound?
The MIC was 0.5 µg/mL.

And the remaining at 1 h, 1 ug/ml [36]?
Its remaining at 1 h, 1 ug/ml is 92.4%.

What about the MIC (Staphylococcus aureus [37]) of the same compound?
Its MIC is 0.125 µg/mL (≈ 0.361 µM).

And the MIC (Staphylococcus aureus [38])?
The MIC was 0.03 µg/mL (≈ 0.0866 µM).

And the MIC [39]?
Its MIC is no more than 4 ng/mL.

And the AUCt [40]?
Its AUCt is 2280.12 ng·h/mL.
